What was measured:
[1] = test system: Glukosidasen; settings: known from Angew. Chem. 93, 738 (1981); cited from earlier work
[2] = test system: UDP-gal NAc: polypeptid-α-N-acetylgalaktosaminyl-transferase; assay: Inhibition of polypeptide α-N-acetylgalactosaminyl transferase activity; type: biochemical; settings: qualitative statement, no value given
[3] = test system: Glykoproteinen; assay: Effect on half-life of glycoproteins; settings: qualitative statement, no value given
[4] = biological target: α-N-Acetyl-galaktosaminidase; assay: Inhibition of α-N-acetylgalactosaminidase; type: biochemical; settings: α-N-Acetyl-galaktosaminidase aus Charonia lampas; read-out: IC₅₀

For OC[C@H]1NC[C@H](O)[C@@H](O)[C@@H]1O [1-Desoxynojirimycin], the “Hemmwirkung auf Glukosidasen” value [1] is given as “Hemmwirkung”.

In the case of CC(=O)N[C@H]1CN[C@H](CO)[C@H](O)[C@@H]1O [If, 2-N-Acetyl-1,2,5-tridesoxy-1,5-imino-D-galaktit], the “Aktivität der UDP-gal NAc: polypeptid-α-N-acetylgalaktosaminyl-transferase” value [2] is reported as “inhibiert”, the “Halbwertszeit von Glykoproteinen” value [3] is reported as “erhöht” and the IC50 [4] is reported as 1400 nM.
